This is an account of results in PMC7531004, “Discovery of gramicidin A analogues with altered activities by multidimensional screening of a one-bead-one-compound library” (Nature Communications, 2020).

Structures are written as SMILES. Where a SMILES comes first, the peptide text is derived from it. [ ]: non-standard residue; d: D form. The star is where a group is joined. NHCH2CH2OH = OCCN*; For = O=C*

Series [1] concerns Streptococcus pyogenes SSI-9. Put plainly: Antibacterial activity assay of bead-derived peptides (three concentrations). Type of series: cell-based. On the set-up: key: +++: inhibition by the 640-fold diluted peptide solution; ++: inhibition by the 160-fold diluted solution; +: inhibition by the 40-fold diluted solution; -: no inhibition. The following applies: S. pyogenes, bead-derived peptide solution, three concentrations. The method in brief:
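Bead-derived library peptide stocks in DMSO were tested undiluted and after 4- and 16-fold DMSO dilution against S. pyogenes SSI-9 (2 × 10^5 CFU/well) in cation-adjusted Mueller Hinton Broth with 5% laked horse blood. After 18 h at 37 °C, wells were scored for precipitation of grown cells.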

Series [2] deals with P388 mouse leukemia cells. The following applies: 92 h. The method in brief: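 First, library peptide stocks are diluted 250-fold in RPMI1640 with 10% heat-inactivated FBS. Next, they are mixed with P388 cells to give 1 × 10^4 cells/mL and incubated 92 h at 37 °C, 5% CO2. Finally, viability (%) is scored by WST-1 absorbance at 415 nm.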
The nature of series [3]: H+/Na+ transport assay of bead-derived peptides (one-point).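 Also: relative to parent gramicidin A activity set to 1.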 In kind it is biochemical. The following applies: bead-derived peptide solution, EYPC/EYPG LUVs. On the set-up: key: relative activity; mean of two control wells = 1.00. Put shortly:
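Pyranine (1.0 mM)-loaded LUVs containing egg yolk phosphatidylglycerol were prepared by film hydration, sonication and extrusion, then mixed with diluted bead-derived peptide in 96-well format and vortexed 30 min at room temperature. Fluorescence was normalized between untreated LUVs (0%) and Triton X-100 lysis (100%).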

`CC(C)C[C@@H](NC(=O)[C@H](C)NC(=O)CNC(=O)[C@@H](NC=O)C(C)C)C(=O)N[C@@H](C)C(=O)N[C@@H](C(=O)N[C@H](C(=O)N[C@H](CC(C)C)C(=O)N[C@@H](Cc1c[nH]c2ccccc12)C(=O)N[C@H](CC(C)C)C(=O)N[C@@H](Cc1c[nH]c2ccccc12)C(=O)N[C@@H](C(=O)N[C@@H](Cc1c[nH]c2ccccc12)C(=O)N[C@H](CC(C)C)C(=O)N[C@@H](Cc1c[nH]c2ccccc12)C(=O)NCCO)[C@H](C)O)C(C)C)C(C)C` [compound 4128] (For-VGA[dL]A[dV]V[dL]W[dL]W[dT]W[dL]W-NHCH2CH2OH): the antibacterial activity entry in series [1] was “+”. The cell viability/% in series [2] was 100.0%. The “H+/Na+ transport activity normalized against the value of 1 (1.00)” value (shortened to “H+/Na+ transport activity normalized”) in series [3] was 1.03.
For `CC(C)C[C@@H](NC(=O)[C@H](Cc1c[nH]c2ccccc12)NC(=O)[C@H](NC(=O)[C@H](Cc1c[nH]c2ccccc12)NC(=O)[C@@H](CC(C)C)NC(=O)[C@@H](NC(=O)[C@H](NC(=O)[C@H](C)NC(=O)[C@H](NC(=O)[C@H](C)NC(=O)CNC(=O)[C@@H](NC=O)C(C)C)[C@H](C)O)C(C)C)C(C)C)C(C)C)C(=O)N[C@@H](Cc1c[nH]c2ccccc12)C(=O)N[C@@H](C(=O)N[C@@H](Cc1c[nH]c2ccccc12)C(=O)NCCO)C(C)C` [compound 4187] (For-VGA[dT]A[dV]V[dL]W[dV]W[dL]W[dV]W-NHCH2CH2OH) the same measures were “-”, 95.1% and 1.32.
The like results for `CC(C)C[C@@H](NC(=O)[C@H](C)NC(=O)[C@H](NC(=O)[C@H](C)NC(=O)CNC(=O)[C@@H](NC=O)C(C)C)C(C)C)C(=O)N[C@H](C(=O)N[C@H](CC(C)C)C(=O)N[C@@H](Cc1c[nH]c2ccccc12)C(=O)N[C@H](CC(C)C)C(=O)N[C@@H](Cc1c[nH]c2ccccc12)C(=O)N[C@@H](C(=O)N[C@@H](Cc1c[nH]c2ccccc12)C(=O)N[C@H](CC(C)C)C(=O)N[C@@H](Cc1c[nH]c2ccccc12)C(=O)NCCO)[C@H](C)O)C(C)C` [compound 4209] (For-VGA[dV]A[dL]V[dL]W[dL]W[dT]W[dL]W-NHCH2CH2OH) were, in that order, “-”, 96.2% and 1.33.
The like results for `CC(C)C[C@@H](NC(=O)[C@H](C)NC(=O)[C@H](NC(=O)[C@H](C)NC(=O)CNC(=O)[C@@H](NC=O)C(C)C)C(C)C)C(=O)N[C@H](C(=O)N[C@H](CC(C)C)C(=O)N[C@@H](Cc1c[nH]c2ccccc12)C(=O)N[C@@H](C(=O)N[C@@H](Cc1c[nH]c2ccccc12)C(=O)N[C@H](CC(C)C)C(=O)N[C@@H](Cc1c[nH]c2ccccc12)C(=O)N[C@@H](C(=O)N[C@@H](Cc1c[nH]c2ccccc12)C(=O)NCCO)C(C)C)[C@H](C)O)C(C)C` [compound 4232] (For-VGA[dV]A[dL]V[dL]W[dT]W[dL]W[dV]W-NHCH2CH2OH) were, in that order, “-”, 93.0% and 1.05.
Turning to `CC(C)C[C@@H](NC(=O)[C@H](Cc1c[nH]c2ccccc12)NC(=O)[C@@H](CC(C)C)NC(=O)[C@@H](NC(=O)[C@H](NC(=O)[C@H](C)NC(=O)[C@H](NC(=O)[C@H](C)NC(=O)CNC(=O)[C@@H](NC=O)C(C)C)[C@H](C)O)C(C)C)C(C)C)C(=O)N[C@@H](Cc1c[nH]c2ccccc12)C(=O)N[C@H](CC(C)C)C(=O)N[C@@H](Cc1c[nH]c2ccccc12)C(=O)N[C@@H](C(=O)N[C@@H](Cc1c[nH]c2ccccc12)C(=O)NCCO)C(C)C` [compound 4236] (For-VGA[dT]A[dV]V[dL]W[dL]W[dL]W[dV]W-NHCH2CH2OH), the antibacterial activity result in series [1] is “-”. This compound also gave a cell viability/% in series [2] of 93.0%. Also, the “H+/Na+ transport activity normalized” value in series [3] was found to be 1.43.
The like results for `CC(C)C[C@@H](NC(=O)[C@H](C)NC(=O)CNC(=O)[C@@H](NC=O)C(C)C)C(=O)N[C@@H](C)C(=O)N[C@@H](C(=O)N[C@H](C(=O)N[C@@H](C(=O)N[C@@H](Cc1c[nH]c2ccccc12)C(=O)N[C@H](CC(C)C)C(=O)N[C@@H](Cc1c[nH]c2ccccc12)C(=O)N[C@@H](C(=O)N[C@@H](Cc1c[nH]c2ccccc12)C(=O)N[C@H](CC(C)C)C(=O)N[C@@H](Cc1c[nH]c2ccccc12)C(=O)NCCO)C(C)C)[C@H](C)O)C(C)C)C(C)C` [compound 4279] (For-VGA[dL]A[dV]V[dT]W[dL]W[dV]W[dL]W-NHCH2CH2OH) were, in that order, “-”, 98.8% and 1.05.
For `CC(C)C[C@@H](NC(=O)[C@H](C)NC(=O)CNC(=O)[C@@H](NC=O)C(C)C)C(=O)N[C@@H](C)C(=O)N[C@H](CC(C)C)C(=O)N[C@H](C(=O)N[C@@H](C(=O)N[C@@H](Cc1c[nH]c2ccccc12)C(=O)N[C@@H](C(=O)N[C@@H](Cc1c[nH]c2ccccc12)C(=O)N[C@H](CC(C)C)C(=O)N[C@@H](Cc1c[nH]c2ccccc12)C(=O)N[C@@H](C(=O)N[C@@H](Cc1c[nH]c2ccccc12)C(=O)NCCO)C(C)C)C(C)C)C(C)C)C(C)C` [compound 4297] (For-VGA[dL]A[dL]V[dV]W[dV]W[dL]W[dV]W-NHCH2CH2OH), in series [1], the antibacterial activity entry is given as “+”. In series [2], this compound had a cell viability/% of 2.3%. Besides, the “H+/Na+ transport activity normalized” value in series [3] was 1.29.
As for `CC(C)C[C@@H](NC(=O)[C@H](C)NC(=O)CNC(=O)[C@@H](NC=O)C(C)C)C(=O)N[C@@H](C)C(=O)N[C@H](CC(C)C)C(=O)N[C@H](C(=O)N[C@H](CC(C)C)C(=O)N[C@@H](Cc1c[nH]c2ccccc12)C(=O)N[C@H](CC(C)C)C(=O)N[C@@H](Cc1c[nH]c2ccccc12)C(=O)N[C@@H](C(=O)N[C@@H](Cc1c[nH]c2ccccc12)C(=O)N[C@@H](C(=O)N[C@@H](Cc1c[nH]c2ccccc12)C(=O)NCCO)C(C)C)C(C)C)C(C)C` [compound 4313] (For-VGA[dL]A[dL]V[dL]W[dL]W[dV]W[dV]W-NHCH2CH2OH), the antibacterial activity result in series [1] is recorded as “+”. Also, the cell viability/% in series [2] is recorded as 3.2%. For the same compound, the “H+/Na+ transport activity normalized” value in series [3] is 1.21.
With `CC(C)C[C@@H](NC(=O)[C@H](Cc1c[nH]c2ccccc12)NC(=O)[C@@H](CC(C)C)NC(=O)[C@H](Cc1c[nH]c2ccccc12)NC(=O)[C@H](NC(=O)[C@H](Cc1c[nH]c2ccccc12)NC(=O)[C@@H](CC(C)C)NC(=O)[C@@H](NC(=O)[C@H](NC(=O)[C@H](C)NC(=O)[C@H](NC(=O)[C@H](C)NC(=O)CNC(=O)[C@@H](NC=O)C(C)C)C(C)C)C(C)C)C(C)C)C(C)C)C(=O)N[C@@H](Cc1c[nH]c2ccccc12)C(=O)NCCO` [compound 4329] (For-VGA[dV]A[dV]V[dL]W[dV]W[dL]W[dL]W-NHCH2CH2OH), the antibacterial activity entry in series [1] is reported as “-”. The cell viability/% in series [2] is given as 14.3%. Further, in series [3], the “H+/Na+ transport activity normalized” value is 1.18.
With `CC(C)C[C@@H](NC(=O)[C@H](C)NC(=O)CNC(=O)[C@@H](NC=O)C(C)C)C(=O)N[C@@H](C)C(=O)N[C@@H](C(=O)N[C@H](C(=O)N[C@@H](C(=O)N[C@@H](Cc1c[nH]c2ccccc12)C(=O)N[C@@H](C(=O)N[C@@H](Cc1c[nH]c2ccccc12)C(=O)N[C@H](CC(C)C)C(=O)N[C@@H](Cc1c[nH]c2ccccc12)C(=O)N[C@@H](C(=O)N[C@@H](Cc1c[nH]c2ccccc12)C(=O)NCCO)C(C)C)C(C)C)[C@H](C)O)C(C)C)C(C)C` [compound 4357] (For-VGA[dL]A[dV]V[dT]W[dV]W[dL]W[dV]W-NHCH2CH2OH), the antibacterial activity result in series [1] is on record as “-”. The cell viability/% in series [2] was found to be 100.0%. Moreover, in series [3], the “H+/Na+ transport activity normalized” value was found to be 1.01.
For `CC(C)C[C@@H](NC(=O)[C@H](C)NC(=O)[C@H](NC(=O)[C@H](C)NC(=O)CNC(=O)[C@@H](NC=O)C(C)C)C(C)C)C(=O)N[C@H](C(=O)N[C@@H](C(=O)N[C@@H](Cc1c[nH]c2ccccc12)C(=O)N[C@@H](C(=O)N[C@@H](Cc1c[nH]c2ccccc12)C(=O)N[C@@H](C(=O)N[C@@H](Cc1c[nH]c2ccccc12)C(=O)N[C@H](CC(C)C)C(=O)N[C@@H](Cc1c[nH]c2ccccc12)C(=O)NCCO)C(C)C)C(C)C)[C@H](C)O)C(C)C` [compound 4395] (For-VGA[dV]A[dL]V[dT]W[dV]W[dV]W[dL]W-NHCH2CH2OH) the same measures were “-”, 100.0% and 1.07.
The like results for `CC(C)C[C@@H](NC(=O)[C@H](C)NC(=O)CNC(=O)[C@@H](NC=O)C(C)C)C(=O)N[C@@H](C)C(=O)N[C@H](CC(C)C)C(=O)N[C@H](C(=O)N[C@@H](C(=O)N[C@@H](Cc1c[nH]c2ccccc12)C(=O)N[C@@H](C(=O)N[C@@H](Cc1c[nH]c2ccccc12)C(=O)N[C@H](CC(C)C)C(=O)N[C@@H](Cc1c[nH]c2ccccc12)C(=O)N[C@H](CC(C)C)C(=O)N[C@@H](Cc1c[nH]c2ccccc12)C(=O)NCCO)[C@H](C)O)[C@H](C)O)C(C)C` [compound 4421] (For-VGA[dL]A[dL]V[dT]W[dT]W[dL]W[dL]W-NHCH2CH2OH) were, in that order, “-”, 100.0% and 1.12.
